Where a name gives a salt, the structure may show the parent alone.
The compounds below were run against T1, HCV polymerase (Hepatitis C virus genotype 1b, UniProt P26663) (assay: biochemical).
T1 construct: a region encoding NS5B (J Virol 1991 March, 65(3), 1105-13, 544 amino acids after deletion of 47 amino acids on the C-terminal); 6xHis (C); made in house; host or cells: Escherichia coli
T1 sequence (P26663 2420-2963): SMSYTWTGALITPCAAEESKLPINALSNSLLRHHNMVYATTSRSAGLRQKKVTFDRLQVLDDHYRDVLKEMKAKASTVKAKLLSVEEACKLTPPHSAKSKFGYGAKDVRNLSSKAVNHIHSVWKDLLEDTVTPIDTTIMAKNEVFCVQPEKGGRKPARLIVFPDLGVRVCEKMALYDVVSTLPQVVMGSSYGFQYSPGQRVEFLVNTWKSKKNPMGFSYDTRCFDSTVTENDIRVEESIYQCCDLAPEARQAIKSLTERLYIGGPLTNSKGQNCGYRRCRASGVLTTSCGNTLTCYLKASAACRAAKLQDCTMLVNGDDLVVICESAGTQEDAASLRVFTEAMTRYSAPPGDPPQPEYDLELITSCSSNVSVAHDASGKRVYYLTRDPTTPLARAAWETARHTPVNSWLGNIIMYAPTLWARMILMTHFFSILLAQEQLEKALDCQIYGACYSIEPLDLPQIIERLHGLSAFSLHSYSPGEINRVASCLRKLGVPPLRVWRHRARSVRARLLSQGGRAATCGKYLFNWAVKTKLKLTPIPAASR
Design: species or system HCV BK strain
Outline: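 Recombinant HCV BK-strain NS5B (C-terminal 47 aa deleted, His6-tagged, E. coli), 0.5 μg/ml, run with 5 μg/ml in vitro-transcribed RNA template (polyU/3′X), ATP/GTP/CTP 50 μM, UTP 2 μM plus [3H]UTP, pH 7.5, 25° C, 90 min. TCA-precipitated RNA counted by scintillation; IC50 from activity with vs without compound.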
O=C(O)c1ccc2c(C3CCCCC3)c3n(c2c1)CCOc1c(OCCC2CCN(C4CCCC4)CC2)cccc1-3 [Example 2-468, 12-cyclohexyl-4-[2-(1-cyclopentylpiperidin-4-yl)ethoxy]-6,7-dihydro-5-oxa-7a-azadibenzo[a,e]azulene-9-carboxylic acid monohydrochloride] was tested, and the IC50 was under 100 nM.
Compound CN1CCCC(Oc2cccc3c2OCCn2c-3c(C3CCCCC3)c3ccc(C(=O)O)cc32)C1 (stereo not shown) [Example 2-469, 12-cyclohexyl-4-(1-methylpiperidin-3-yloxy)-6,7-dihydro-5-oxa-7a-azadibenzo[a,e]azulene-9-carboxylic acid monohydrochloride] has an IC50 of under 100 nM.
COCCN1CCCC(Oc2cccc3c2OCCn2c-3c(C3CCCCC3)c3ccc(C(=O)O)cc32)C1 (stereo not shown) [Example 2-470, 12-cyclohexyl-4-[1-(2-methoxyethyl)piperidin-3-yloxy]-6,7-dihydro-5-oxa-7a-azadibenzo[a,e]azulene-9-carboxylic acid monohydrochloride] showed an IC50 of under 100 nM.
Work on O=C(O)c1ccc2c(C3CCCCC3)c3n(c2c1)CCOc1c(OCc2cc(N4CCCC4=O)ccc2N2CCOCC2)cccc1-3 [Example 2-471, 12-cyclohexyl-4-[2-(morpholin-4-yl)-5-(2-oxopyrrolidin-1-yl)benzyloxy]-6,7-dihydro-5-oxa-7a-azadibenzo[a,e]azulene-9-carboxylic acid monohydrochloride] yielded an IC50 of under 100 nM.
With CN1CCC(N(C)CCOc2cccc3c2OCCn2c-3c(C3CCCCC3)c3ccc(C(=O)O)cc32)CC1 [Example 2-472, 12-cyclohexyl-4-{2-[N-methyl-N-(1-methylpiperidin-4-yl)amino]ethoxy}-6,7-dihydro-5-oxa-7a-azadibenzo[a,e]azulene-9-carboxylic acid trihydrochloride] the IC50 was under 100 nM.
Compound COC(=O)c1ccc2c(C3CCCCC3)c3n(c2c1)CCOc1c(OCC(=O)O)cccc1-3 [Example 2-473, methyl 4-carboxymethoxy-12-cyclohexyl-6,7-dihydro-5-oxa-7a-azadibenzo[a,e]azulene-9-carboxylate] has an IC50 of 100 to 1000 nM.
In the case of CN(CCN1CCCCC1)c1cccc2c1OCCn1c-2c(C2CCCCC2)c2ccc(C(=O)O)cc21 [Example 2-474, 12-cyclohexyl-4-(N-methyl-N-[2-(piperidin-1-yl)ethyl]amino}-6,7-dihydro-5-oxa-7a-azadibenzo[a,e]azulene-9-carboxylic acid dihydrochloride], the IC50 is reported as under 100 nM.
In the case of COc1cccc2c1OCCn1c-2c(C2CCCCC2)c2ccc(C(=O)O)cc21 [Example 2-475, 12-cyclohexyl-4-methoxy-6,7-dihydro-5-oxa-7a-azadibenzo[a,e]azulene-9-carboxylic acid], the IC50 is reported as under 100 nM.
Compound Nc1cccc2c1OCCn1c-2c(C2CCCCC2)c2ccc(C(=O)O)cc21 [Example 2-476, 4-amino-12-cyclohexyl-6,7-dihydro-5-oxa-7a-azadibenzo[a,e]azulene-9-carboxylic acid] has an IC50 of under 100 nM.
Compound O=C(O)c1ccc2c(C3CCCCC3)c3n(c2c1)CCOc1c-3cccc1[N+](=O)[O-] [Example 2-477, 12-cyclohexyl-4-nitro-6,7-dihydro-5-oxa-7a-azadibenzo[a,e]azulene-9-carboxylic acid] has an IC50 of under 100 nM.
Work on O=C(O)c1ccc2c(C3CCCCC3)c3n(c2c1)CCOc1c(NCCN2CCCCC2)cccc1-3 [Example 2-478, 12-cyclohexyl-4-[2-(piperidin-1-yl)ethylamino]-6,7-dihydro-5-oxa-7a-azadibenzo[a,e]azulene-9-carboxylic acid dihydrochloride] yielded an IC50 of under 100 nM.
Cc1ccc2c(c1)OCCn1c-2c(C2CCCCC2)c2ccc(C(=O)O)cc21 [Example 2-479, 12-cyclohexyl-3-methyl-6,7-dihydro-5-oxa-7a-azadibenzo[a,e]azulene-9-carboxylic acid] showed an IC50 of under 100 nM.
CCN(CCN1CCCCC1)c1cccc2c1OCCn1c-2c(C2CCCCC2)c2ccc(C(=O)O)cc21 [Example 2-480, 12-cyclohexyl-4-{N-ethyl-N-[2-(piperidin-1-yl)ethyl]amino}-6,7-dihydro-5-oxa-7a-azadibenzo[a,e]azulene-9-carboxylic acid dihydrochloride] showed an IC50 of under 100 nM.
CCCN(CCN1CCCCC1)c1cccc2c1OCCn1c-2c(C2CCCCC2)c2ccc(C(=O)O)cc21 [Example 2-481, 12-cyclohexyl-4-{N-[2-(piperidin-1-yl)ethyl]-N-propylamino}-6,7-dihydro-5-oxa-7a-azadibenzo[a,e]azulene-9-carboxylic acid dihydrochloride] showed an IC50 of under 100 nM.
Compound COCCN(CCN1CCCCC1)c1cccc2c1OCCn1c-2c(C2CCCCC2)c2ccc(C(=O)O)cc21 [Example 2-482, 12-cyclohexyl-4-{N-(2-methoxyethyl)-N-[2-(piperidin-1-yl)ethyl]amino}-6,7-dihydro-5-oxa-7a-azadibenzo[a,e]azulene-9-carboxylic acid dihydrochloride] has an IC50 of under 100 nM.
CN(C)c1cccc2c1OCCn1c-2c(C2CCCCC2)c2ccc(C(=O)O)cc21 [Example 2-483, 12-cyclohexyl-4-dimethylamino-6,7-dihydro-5-oxa-7a-azadibenzo[a,e]azulene-9-carboxylic acid] was tested, and the IC50 was under 100 nM.
O=C(O)c1ccc2c(C3CCCCC3)c3n(c2c1)CCOc1cccc(F)c1-3 [Example 2-484, 12-cyclohexyl-1-fluoro-6,7-dihydro-5-oxa-7a-azadibenzo[a,e]azulene-9-carboxylic acid] was tested, and the IC50 was under 100 nM.
CC(=O)N(CCN1CCCCC1)c1cccc2c1OCCn1c-2c(C2CCCCC2)c2ccc(C(=O)O)cc21 [Example 2-485, 4-{N-acetyl-N-[2-(piperidin-1-yl)ethyl]amino}-12-cyclohexyl-6,7-dihydro-5-oxa-7a-azadibenzo[a,e]azulene-9-carboxylic acid] showed an IC50 of under 100 nM.
With CN(CC(=O)N1CCCCC1)c1cccc2c1OCCn1c-2c(C2CCCCC2)c2ccc(C(=O)O)cc21 [Example 2-486, 12-cyclohexyl-4-{N-methyl-N-[2-oxo-2-(piperidin-1-yl)ethyl]amino}-6,7-dihydro-5-oxa-7a-azadibenzo[a,e]azulene-9-carboxylic acid] the IC50 was under 100 nM.
With COc1ccc2c(c1)OCCn1c-2c(C2CCCCC2)c2ccc(C(=O)NC3(C(=O)Nc4ccc(S(=O)(=O)O)cc4)CCC3)cc21 [Example 2-523, 4-({1-[(12-cyclohexyl-3-methoxy-6,7-dihydro-5-oxa-7a-azadibenzo[a,e]azulene-9-carbonyl)amino]cyclobutanecarbonyl}amino)benzenesulfonic acid] the IC50 was under 100 nM.
Compound COc1ccc2c(c1)OCCn1c-2c(C2CCCCC2)c2ccc(C(=O)N[C@@H](Cc3ccc(O)cc3)C3=NC(C)(C)C(=O)O3)cc21 [Example 2-524, N—[(S)-1-(4,4-dimethyl-5-oxo-4,5-dihydrooxazol-2-yl)-2-(4-hydroxyphenyl)ethyl]-12-cyclohexyl-3-methoxy-6,7-dihydro-5-oxa-7a-azadibenzo[a,e]azulene-9-carboxamide] has an IC50 of under 100 nM.
Compound COc1ccc2c(c1)OCCn1c-2c(C2CCCCC2)c2ccc(C(=O)N[C@@H](Cc3ccc(OCc4ccccc4)cc3)c3n[nH]c(C)n3)cc21 [Example 2-525, N—[(S)-2-(4-benzyloxyphenyl)-1-(5-methyl-1H-1,2,4-triazol-3-yl)ethyl]-12-cyclohexyl-3-methoxy-6,7-dihydro-5-oxa-7a-azadibenzo[a,e]azulene-9-carboxamide] has an IC50 of under 100 nM.
COc1ccc2c(c1)OCCn1c-2c(C2CCCCC2)c2ccc(C(=O)N[C@@H](Cc3ccc(O)cc3)c3n[nH]c(C)n3)cc21 [Example 2-526, N—[(S)-2-(4-hydroxyphenyl)-1-(5-methyl-1H-1,2,4-triazol-3-yl)ethyl]-12-cyclohexyl-3-methoxy-6,7-dihydro-5-oxa-7a-azadibenzo[a,e]azulene-9-carboxamide] was tested, and the IC50 was under 100 nM.
For CNC(=O)COc1ccc2[nH]c(C3(NC(=O)c4ccc5c(C6CCCCC6)c6n(c5c4)CCOc4cc(OC)ccc4-6)CCC3)nc2c1 [Example 2-527, N-[1-(5-methylcarbamoylmethoxy-1H-benzimidazol-2-yl)cyclobutyl]-12-cyclohexyl-3-methoxy-6,7-dihydro-5-oxa-7a-azadibenzo[a,e]azulene-9-carboxamide], the IC50 was under 100 nM.
COc1ccc2c(c1)OCCn1c-2c(C2CCCCC2)c2ccc(C(=O)NC3(C(=O)Nc4ccc(/C=C(\C)C(=O)O)cc4)CCC3)cc21 [Example 2-528, (E)-3-[4-({1-[(12-cyclohexyl-3-methoxy-6,7-dihydro-5-oxa-7a-azadibenzo[a,e]azulene-9-carbonyl)amino]cyclobutanecarbonyl}amino)phenyl]-2-methylacrylic acid] gave an IC50 of under 100 nM.
For COc1ccc2c(c1)OCCn1c-2c(C2CCCCC2)c2ccc(C(=O)NC3(C(=O)Nc4ccc(/C(C)=C/C(=O)O)cc4)CCC3)cc21 [Example 2-529, (E)-3-[4-({1-[(12-cyclohexyl-3-methoxy-6,7-dihydro-5-oxa-7a-azadibenzo[a,e]azulene-9-carbonyl)amino]cyclobutanecarbonyl}amino)phenyl]but-2-enoic acid], the IC50 was under 100 nM.
COc1ccc2c(c1)OCCn1c-2c(C2CCCCC2)c2ccc(C(=O)NC3(C(=O)Nc4ccc(/C=C/C(=O)O)cc4OCCOCc4ccccc4)CCC3)cc21 [Example 2-530, (E)-3-[3-(2-benzyloxyethoxy)-4-({1-[(12-cyclohexyl-3-methoxy-6,7-dihydro-5-oxa-7a-azadibenzo[a,e]azulene-9-carbonyl)amino]cyclobutanecarbonyl}amino)phenyl]acrylic acid] gave an IC50 of under 100 nM.
COc1ccc2c(c1)OCCn1c-2c(C2CCCCC2)c2ccc(C(=O)NC3(C(=O)Nc4ccc(/C=C/C(=O)O)c(OC)c4)CCC3)cc21 [Example 2-531, (E)-3-[4-({1-[(12-cyclohexyl-3-methoxy-6,7-dihydro-5-oxa-7a-azadibenzo[a,e]azulene-9-carbonyl)amino]cyclobutanecarbonyl}amino)-2-methoxyphenyl]acrylic acid] gave an IC50 of under 100 nM.

Reference: patent publication US20070049593A1 (priority 2004, published 2007)
